Data from patent US20250163057A1, “DCN-1 MODULATING COMPOUNDS AND METHODS OF USE THEREOF” (Cellarity, Inc., priority 2023, published 2025).

Key:
[1] = system: HbF in GlyA+ human erythroid precursor cells; test: Humanized mouse model: F-cells (GlyA+ cells with detectable HbF) by flow cytometry; type: in vivo, NBSGW mice reconstituted with human CD34+ cells; conditions: FIG. 10A, all treatment groups
Protocol: FIG. 5 is FACS results showing the percentage of GlyA+ cells which also have detectable HbF protein levels in them (called F-cells).
(§1) Female, 6-week-old NOD.Cg-Kit^W-41J Tyr^+ Prkdc^scid Il2rg^tm1Wjl/ThomJ (NBSGW) mice (Jackson Laboratory strain #[…]) were used for these studies. The mice were acclimatized to laboratory conditions for 5 days prior to inoculation.
GCSF-mobilized human CD34+ cells were removed from liquid nitrogen storage, thawed in a 37° C. water bath and transferred quickly into a 50 mL conical tube. Cryovial was rinsed once with thaw buffer, 0.1% BSA in phosphate buffered saline (PBS), and buffer was transferred and combined with the original contents in the 50 mL conical tube. Next, doubling volumes of thaw buffer was added to the conical and gently swirled for ˜30 seconds to one minute until the volume in the conical was 32 mL. […] Cells were counted by resuspending in 1 mL of thawing buffer per million of cells to a target concentration range of 0.5 to 2M/ml and counting with AOPI (1:1) on a luna cell counter to confirm the concentration of cells/mL. […]
Compound I-73 was dissolved in a 5% Cremophor RH40, 20% hydroxylpropyl-β-cyclodextrin solution. […] Mice were monitored daily for body weight and condition. […]
After 21 days of dosing, all mice were euthanized and prepared for bone marrow collection. […] Extracted cells were counted and aliquoted to prepare for analysis. […]

[2] = Preliminary pharmacokinetic studies (serum exposure); type: in vivo, wild-type mice
[3] = system: fetal hemoglobin gene expression (HBG1) in human erythroid progenitor cells; test: Humanized mouse model: fetal hemoglobin mRNA (HBG1, HBB) in bone marrow by Nanostring; type: in vivo, NBSGW mice reconstituted with human CD34+ cells; conditions: for HBG1 expression compared to vehicle (HBG1 alone or HBG1 to total beta hemoglobin mRNA): FIGS. 11A-11C, various doses and treatment regimes
From the text: (§2) Results: To evaluate induction of target cell activity in the bone marrow, a humanized mouse model was developed. This model entails the reconstitution of human hematopoietic progenitor cells within the bone marrow of immunodeficient nonirradiated NOD.Cg-KitW-41J Tyr^+ Prkdc^scid Il2rg^tmlwjl/ThomJ (NBSGW) strain recipient mice. These mice are competent to engraft and differentiate human erythroid progenitor cells that express human adult hemoglobin mRNA and protein subunits within bone marrow.
(§3) Based on these exposure results, humanized mice were treated with either the clinical standard of care compound, hydroxyurea (50 mg/kg; bid), or I-73, at 25 and 100 mg/kg (bid), by oral gavage over a three-week period. At the end of the treatment period, bone marrow was harvested for flow cytometry, as well as for assessment of HbF protein and fetal hemoglobin (HBG1) mRNA levels. Levels of both HbF protein and HBG1 mRNA were normalized to the percentage of human erythroid progenitor cells in the bone marrow of each mouse as determined by immunofluorescence staining for human Glycophorin A cell membrane expression. […] In addition, relative levels of fetal hemoglobin to those of potentially sickling-prone adult hemoglobin (HBB) was assessed.
as §1
(§4) GCSF-mobilized human CD34+ cells were removed from liquid nitrogen storage, thawed in a 37° C. water bath and transferred quickly into a 50 mL conical tube. Cryovial was rinsed once with thaw buffer, 0.1% BSA in phosphate buffered saline (PBS), and buffer was transferred and combined with the original contents in the 50 mL conical tube. Next, doubling volumes of thaw buffer was added to the conical and gently swirled for ˜30 seconds to one minute until the volume in the conical was 32 mL. Cells and buffer were centrifuged at 300G for 8 minutes, and the supernatants were aspirated. Cells were counted by resuspending in 1 mL of thawing buffer per million of cells to a target concentration range of 0.5 to 2M/ml and counting with AOPI (1:1) on a luna cell counter to confirm the concentration of cells/mL. The cell concentration was adjusted to 3×10^6 cells/ml. For each mouse, 300 thousand cells in 0.1 ml were injected into the tail vein with a 25-gauge needle.
(§5) On day 56 after human cell adoptive transfer, whole blood was collected from each mouse by submandibular bleed and a 100 μL sample of EDTA whole blood was transferred to a 2 ml tube containing 1.8 mL ACK Lysing Buffer at room temperature (RT), and then inverted to mix. Samples were incubated at RT for 15 min in the dark to lyse. After lysis, samples are centrifuged at 500×g for 5 minutes at RT to enable supernatant decanting. Remaining cells were washed with 1 mL of PBS-0.5% BSA and centrifuged at 500×g for 5 minutes at 4° C. Supernatant was decanted and cells were stained with leukocyte markers (human and mouse CD45 antibodies; BD347464, BD557659) to confirm human cell engraftment. Mice having less than one percent, or greater than ten percent, human CD45 positive cells were excluded from the subsequent study. Remaining mice were then randomized into treatment groups based on percentage of human cell engraftment. Each treatment group included 10-11 mice.
(§6) Compound I-73 was dissolved in a 5% Cremophor RH40, 20% hydroxylpropyl-β-cyclodextrin solution. Hydroxyurea was solubilized in PBS. Formulations were prepared fresh daily. Commencing on day 84 post human cell engraftment, mice were treated by oral gavage with either I-73, hydroxyurea or their respective vehicles, for a period of three weeks using either once daily (QD) or twice daily (BID) dosing regimens. Mice were monitored daily for body weight and condition. […]

[4] = system: fetal hemoglobin protein (HbF) in human erythroid progenitor cells; test: Humanized mouse model: HbF protein in bone marrow by AlphaLISA; type: in vivo, NBSGW mice reconstituted with human CD34+ cells; conditions: for HbF protein levels (AlphaLISA) normalized for % GlyA+ cells: FIG. 10B, most treatment groups
From the text: as §2, §3, §1, §4, §5, §6

[5] = humanized mouse model, human erythroid progenitor cells, dose not given at this place

Compound | percentage of HbF expression in GlyA+ cells (F-cell analysis) [1] | serum concentrations relative to that required to inhibit DCN-1 ([2]; dosing at 25 and 100 mg/kg) | in vivo serum exposure levels ([2]; wild-type mice) | HBG1 mRNA transcript levels (Nanostring) ([3]; 25 and 100 mg/kg bid, oral gavage, three weeks (FIG. 1B)) | ratios of HBG1 to HBB mRNA compared with hydroxyurea (50 mg/kg bid) ([3]; 25 and 100 mg/kg bid, oral gavage, three weeks (FIG. 1C)) | HBG1 expression compared to vehicle (HBG1 alone or HBG1 to total beta hemoglobin mRNA) [3] | induction of fetal hemoglobin mRNA (HBG1) [3, 5] | ratio of fetal HBG1 hemoglobin mRNA to adult hemoglobin mRNA (HBB), compared with HU ([3]; humanized mouse model, dose not given at this place) | HbF protein levels in bone marrow (AlphaLISA) compared to vehicle-treated mice ([4]; 25 and 100 mg/kg bid, oral gavage, three weeks, normalized to % GlyA+ cells (FIG. 1A)) | HbF protein levels (AlphaLISA) normalized for % GlyA+ cells [4] | difference in HbF protein levels between the 25 and the 100 mg/kg doses ([4]; bid, oral gavage, three weeks) | induction of fetal hemoglobin protein (HbF) [4, 5]
CCN1C(=O)[C@@H](NC(=O)c2cccc(C(F)(F)F)c2)[C@@H](c2ccc(F)cc2)c2c([C@@H](C)NC#N)nn(-c3ccccc3)c21 [Compound I-73, N-((4S,5S)-3-((R)-1-cyanamidoethyl)-7-ethyl-4-(4-fluorophenyl)-6-oxo-1-phenyl-4,5,6,7-tetrahydro-1H-pyrazolo[3,4-b]pyridin-5-yl)-3-(trifluoromethyl)benzamide] | increased percentage of HbF expression in GlyA+ cells | equivalent to or greater than that required to inhibit DCN-1 | predicted to be sufficient for fetal hemoglobin induction | enhanced transcript levels | significantly greater ratios | increased HBG1 expression compared to vehicle | an induction of both HBG1 mRNA and HbF protein was observed | significantly greater than HU standard of care | significantly increases | increased HbF protein levels | no significant difference | an induction of both HBG1 mRNA and HbF protein was observed
CCN1C(=O)[C@@H](NC(=O)c2cccc(C(F)(F)F)c2)[C@@H](C2CC2)c2c(C(=O)N3[C@H](C#N)C[C@H]4C[C@H]43)nn(C3CCOCC3)c21 [Compound I-256, N-((4S,5S)-3-((1R,3S,5R)-3-cyano-2-azabicyclo[3.1.0]hexane-2-carbonyl)-4-cyclopropyl-7-ethyl-6-oxo-1-(tetrahydro-2H-pyran-4-yl)-4,5,6,7-tetrahydro-1H-pyrazolo[3,4-b]pyridin-5-yl)-3-(trifluoromethyl)benzamide] | increased percentage of HbF expression in GlyA+ cells |  |  |  |  | increased HBG1 expression compared to vehicle |  |  |  | increased HbF protein levels |  | 
